pKi: −log10 of the molar value.
Biological target: T1, chimeric human H3 receptor (Homo sapiens, UniProt Q9Y5N1, E19D)
T1 construct: made in house; host or cells: Sf9 insect cells (baculovirus infection); P2 membrane preparation
Test: Chimeric human H3 receptor GTP binding assay (agonist-stimulated GTP-gamma35S binding, Example 7)
Type: biochemical
Conditions: Table II; assay of Example 7; "*" in Ki; read-out: Ki
Outline: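 IC50 values come from non-linear regression of dose-response curves of filter-bound GTP-gamma^35S, counted by scintillation. Membranes were from infected Sf9 cells carrying receptor plus G-protein subunits, 35 μg/tube, with 10 μM GDP present.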

T1 sequence (Q9Y5N1 with tags, fused parts or gaps E19D): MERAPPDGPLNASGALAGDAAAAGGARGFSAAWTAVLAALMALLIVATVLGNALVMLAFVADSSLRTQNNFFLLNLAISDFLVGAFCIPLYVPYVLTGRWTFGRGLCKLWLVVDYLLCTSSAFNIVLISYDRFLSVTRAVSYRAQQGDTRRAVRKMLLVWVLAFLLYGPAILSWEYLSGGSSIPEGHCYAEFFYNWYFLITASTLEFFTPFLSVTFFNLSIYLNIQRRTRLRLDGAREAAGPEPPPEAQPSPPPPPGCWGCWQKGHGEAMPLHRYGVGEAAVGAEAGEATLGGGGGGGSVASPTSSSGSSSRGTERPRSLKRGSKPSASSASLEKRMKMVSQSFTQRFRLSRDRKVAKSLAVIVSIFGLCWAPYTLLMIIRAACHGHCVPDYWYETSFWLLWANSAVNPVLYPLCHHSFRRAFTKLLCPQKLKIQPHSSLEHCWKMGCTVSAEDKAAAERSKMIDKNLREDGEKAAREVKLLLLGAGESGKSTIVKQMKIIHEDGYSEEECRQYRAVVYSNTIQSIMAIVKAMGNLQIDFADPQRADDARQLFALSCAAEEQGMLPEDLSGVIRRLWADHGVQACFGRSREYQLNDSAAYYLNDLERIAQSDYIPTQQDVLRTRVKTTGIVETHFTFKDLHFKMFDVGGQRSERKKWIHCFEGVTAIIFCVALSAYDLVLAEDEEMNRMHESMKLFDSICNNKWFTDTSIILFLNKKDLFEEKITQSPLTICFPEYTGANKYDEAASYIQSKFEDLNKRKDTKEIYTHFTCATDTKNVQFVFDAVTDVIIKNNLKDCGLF

| Structure (SMILES) | pKi |
| --- | --- |
| CNC(=O)c1ccc(N2CCN(CC(=O)N3CCN(C4CCC4)CC3)CC2)cc1 [Compound 1122, 4-{1-[2-(4-cyclobutylpiperazin-1-yl)-2-oxoethyl]piperazin-1-yl}-N-methylbenzamide] | > 6.00 |
| CN(C)C(=O)c1ccc(N2CCN(CC(=O)N3CCN(C4CCC4)CC3)CC2)cc1 [Compound 1123, 4-{1-[2-(4-cyclobutylpiperazin-1-yl)-2-oxoethyl]piperazin-1-yl}-N,N-dimethylbenzamide] | > 6.00 |
| CCNC(=O)c1ccc(N2CCN(CC(=O)N3CCN(C4CCC4)CC3)CC2)cc1 [Compound 1124, 4-{1-[2-(4-cyclobutylpiperazin-1-yl)-2-oxoethyl]piperazin-1-yl}-N-ethylbenzamide] | > 6.00 |
| CCN(CC)C(=O)c1ccc(N2CCN(CC(=O)N3CCN(C4CCC4)CC3)CC2)cc1 [Compound 1125, 4-{4-[2-(4-cyclobutylpiperazin-1-yl)-2-oxoethyl]piperazin-1-yl}-N,N-diethylbenzamide] | > 6.00 |
| CCN(C(=O)c1ccc(N2CCN(CC(=O)N3CCN(C4CCC4)CC3)CC2)cc1)C(C)C [Compound 1126, 4-{4-[2-(4-cyclobutylpiperazin-1-yl)-2-oxoethyl]piperazin-1-yl}-N-ethyl-N-isopropylbenzamide] | > 6.00 |
| CC(C)N(C)C(=O)c1ccc(N2CCN(CC(=O)N3CCN(C4CCC4)CC3)CC2)cc1 [Compound 1127, 4-{4-[2-(4-cyclobutylpiperazin-1-yl)-2-oxoethyl]piperazin-1-yl}-N-isopropyl-N-methylbenzamide] | > 6.00 |
| CN(C(=O)c1ccc(N2CCN(CC(=O)N3CCN(C4CCC4)CC3)CC2)cc1)C1CCCCC1 [Compound 1128, 4-{4-[2-(4-cyclobutylpiperazin-1-yl)-2-oxoethyl]piperazin-1-yl}-N-cyclohexyl-N-methylbenzamide] | > 6.00 |
| CCN(C(=O)c1ccc(N2CCN(CC(=O)N3CCN(C4CCC4)CC3)CC2)cc1)C1CCCCC1 [Compound 1129, 4-{4-[2-(4-cyclobutylpiperazin-1-yl)-2-oxoethyl]piperazin-1-yl}-N-cyclohexyl-N-ethylbenzamide] | > 6.00 |
| COCCN(C(=O)c1ccc(N2CCN(CC(=O)N3CCN(C4CCC4)CC3)CC2)cc1)C(C)C [Compound 1130, 4-{4-[2-(4-cyclobutylpiperazin-1-yl)-2-oxoethyl]piperazin-1-yl}-N-isopropyl-N-(2-methoxyethyl)benzamide] | > 6.00 |
| CCC(C)CNC(=O)c1ccc(N2CCN(CC(=O)N3CCN(C4CCC4)CC3)CC2)cc1 (centres unmarked) [Compound 1131, 4-{4-[2-(4-cyclobutylpiperazin-1-yl)-2-oxoethyl]piperazin-1-yl}-N-(2-methylbutyl)benzamide] | > 6.00 |
| CCCNC(=O)c1ccc(N2CCN(CC(=O)N3CCN(C4CCC4)CC3)CC2)cc1 [Compound 1132, 4-{4-[2-(4-cyclobutylpiperazin-1-yl)-2-oxoethyl]piperazin-1-yl}-N-propylbenzamide] | > 6.00 |
| O=C(NCC1CC1)c1ccc(N2CCN(CC(=O)N3CCN(C4CCC4)CC3)CC2)cc1 [Compound 1133, 4-{4-[2-(4-cyclobutylpiperazin-1-yl)-2-oxoethyl]piperazin-1-yl}-N-(cyclopropylmethyl) benzamide] | > 6.00 |
| CC(C)CNC(=O)c1ccc(N2CCN(CC(=O)N3CCN(C4CCC4)CC3)CC2)cc1 [Compound 1134, 4-{4-[2-(4-cyclobutylpiperazin-1-yl)-2-oxoethyl]piperazin-1-yl}-N-isobutylbenzamide] | > 6.00 |
| CCCCCNC(=O)c1ccc(N2CCN(CC(=O)N3CCN(C4CCC4)CC3)CC2)cc1 [Compound 1135, 4-{4-[2-(4-cyclobutylpiperazin-1-yl)-2-oxoethyl]piperazin-1-yl}-N-pentylbenzamide] | > 6.00 |
| CC(C)CCNC(=O)c1ccc(N2CCN(CC(=O)N3CCN(C4CCC4)CC3)CC2)cc1 [Compound 1136, 4-{4-[2-(4-cyclobutylpiperazin-1-yl)-2-oxoethyl]piperazin-1-yl}-N-(3-methylbutyl)benzamide] | > 6.00 |
| O=C(NCC(F)(F)F)c1ccc(N2CCN(CC(=O)N3CCN(C4CCC4)CC3)CC2)cc1 [Compound 1137, 4-{4-[2-(4-cyclobutylpiperazin-1-yl)-2-oxoethyl]piperazin-1-yl}-N-(2,2,2-trifluoroethyl)benzamide] | > 6.00 |

Same assay, conditions: assay of Example 7; "*" in Ki of Table II; read-out: Ki

| Structure (SMILES) | pKi |
| --- | --- |
| O=C(NC1CC1)c1ccc(N2CCN(CC(=O)N3CCN(C4CCC4)CC3)CC2)cc1 [Compound 1138, 4-{4-[2-(4-cyclobutylpiperazin-1-yl)-2-oxoethyl]piperazin-1-yl}-N-cyclopropylbenzamide] | > 6.00 |
| O=C(NC1CCCCC1)c1ccc(N2CCN(CC(=O)N3CCN(C4CCC4)CC3)CC2)cc1 [Compound 1139, 4-{4-[2-(4-cyclobutylpiperazin-1-yl)-2-oxoethyl]piperazin-1-yl}-N-cyclohexylbenzamide] | > 6.00 |
| CC(C)NC(=O)c1ccc(N2CCN(CC(=O)N3CCN(C4CCC4)CC3)CC2)cc1 [Compound 1140, 4-{4-[2-(4-cyclobutylpiperazin-1-yl)-2-oxoethyl]piperazin-1-yl}-N-isopropylbenzamide] | > 6.00 |
| O=C(NC1CCCC1)c1ccc(N2CCN(CC(=O)N3CCN(C4CCC4)CC3)CC2)cc1 [Compound 1141, 4-{4-[2-(4-cyclobutylpiperazin-1-yl)-2-oxoethyl]piperazin-1-yl}-N-cyclopentylbenzamide] | > 6.00 |
| CCCC(C)NC(=O)c1ccc(N2CCN(CC(=O)N3CCN(C4CCC4)CC3)CC2)cc1 (centres unmarked) [Compound 1142, 4-{4-[2-(4-cyclobutylpiperazin-1-yl)-2-oxoethyl]piperazin-1-yl}-N-(1-methylbutyl)benzamide] | > 6.00 |
| O=C(NC1CCCCCC1)c1ccc(N2CCN(CC(=O)N3CCN(C4CCC4)CC3)CC2)cc1 [Compound 1143, 4-{4-[2-(4-cyclobutylpiperazin-1-yl)-2-oxoethyl]piperazin-1-yl}-N-cycloheptylbenzamide] | > 6.00 |
| O=C(NCC1CCCCC1)c1ccc(N2CCN(CC(=O)N3CCN(C4CCC4)CC3)CC2)cc1 [Compound 1144, 4-{4-[2-(4-cyclobutylpiperazin-1-yl)-2-oxoethyl]piperazin-1-yl}-N-(cyclohexylmethyl) benzamide] | > 6.00 |
| CC(C)(C)CNC(=O)c1ccc(N2CCN(CC(=O)N3CCN(C4CCC4)CC3)CC2)cc1 [Compound 1145, 4-{4-[2-(4-cyclobutylpiperazin-1-yl)-2-oxoethyl]piperazin-1-yl}-N-(2,2-dimethylpropyl) benzamide] | > 6.00 |
| CCC(CC)CNC(=O)c1ccc(N2CCN(CC(=O)N3CCN(C4CCC4)CC3)CC2)cc1 [Compound 1146, 4-{4-[2-(4-cyclobutylpiperazin-1-yl)-2-oxoethyl]piperazin-1-yl}-N-(2-ethylbutyl)benzamide] | > 6.00 |
| N#Cc1ccc(N2CCN(CC(=O)N3CCN(C4CCCCC4)CC3)CC2)cc1 [Compound 1147, 4-{4-[2-(4-cyclohexylpiperazin-1-yl)-2-oxoethyl]piperazin-1-yl}benzonitrile] | > 6.00 |
| N#Cc1ccc(N2CCN(CC(=O)N3CCN(C4CCCC4)CC3)CC2)cc1 [Compound 1148, 4-{4-[2-(4-cyclopentylpiperazin-1-yl)-2-oxoethyl]piperazin-1-yl}benzonitrile] | > 6.00 |
| CC(C)N1CCN(C(=O)CN2CCN(c3ccc(C#N)cc3)CC2)CC1 [Compound 1149, 4-{4-[2-(4-isopropylpiperazin-1-yl)-2-oxoethyl]piperazin-1-yl}benzonitrile] | > 6.00 |
| CCC(C)N1CCN(C(=O)CN2CCN(c3ccc(C#N)cc3)CC2)CC1 (centres unmarked) [Compound 1150, 4-{4-[2-(4-sec-butylpiperazin-1-yl)-2-oxoethyl]piperazin-1-yl}benzonitrile] | > 6.00 |
| CC(C)(C)c1ccc(C(=O)NC2CCN(CC(=O)N3CCN(C4CCC4)CC3)C2)cc1 (centres unmarked) [Compound 1152, 4-tert-butyl-N-{1-[2-(4-cyclobutylpiperazin-1-yl)-2-oxoethyl]pyrrolidin-3-yl}benzamide] | > 6.00 |
| O=C(CN1CCN(c2ccc(-c3cncnc3)cc2)CC1)N1CCN(C2CCC2)CC1 [Compound 1154, 5-(4-{4-[2-(4-cyclobutylpiperazin-1-yl)-2-oxoethyl]piperazin-1-yl}phenyl)pyrimidine] | > 6.00 |
| CN1Cc2cc(N3CCN(CC(=O)N4CCN(C5CCC5)CC4)CC3)ccc2C1=O [Compound 1155, 5-{4-[2-(4-cyclobutylpiperazin-1-yl)-2-oxoethyl]piperazin-1-yl}-2-methylisoindolin-1-one] | > 6.00 |
| O=C1OCc2cc(N3CCN(CC(=O)N4CCN(C5CCC5)CC4)CC3)ccc21 [Compound 1156, 5-{4-[2-(4-cyclobutylpiperazin-1-yl)-2-oxoethyl]piperazin-1-yl}-2-benzofuran-1(3H)-one] | > 6.00 |
| O=C1CCc2cc(N3CCN(CC(=O)N4CCN(C5CCC5)CC4)CC3)ccc21 [Compound 1157, 5-{4-[2-(4-cyclobutylpiperazin-1-yl)-2-oxoethyl]piperazin-1-yl}indan-1-one] | > 6.00 |
| N#Cc1cnc(N2CCN(CC(=O)N3CCN(C4CCC4)CC3)CC2)cn1 [Compound 1158, 5-{4-[2-(4-cyclobutylpiperazin-1-yl)-2-oxoethyl]piperazin-1-yl}pyrazine-2-carbonitrile] | > 6.00 |
| O=C1OCc2cc(N3CCN(CC(=O)N4CCN(C5CCCC5)CC4)CC3)ccc21 [Compound 1159, 5-{4-[2-(4-cyclopentylpiperazin-1-yl)-2-oxoethyl]piperazin-1-yl}-2-benzofuran-1(3H)-one] | > 6.00 |
| O=C1CCc2cc(N3CCN(CC(=O)N4CCN(C5CCCC5)CC4)CC3)ccc21 [Compound 1160, 5-{4-[2-(4-cyclopentylpiperazin-1-yl)-2-oxoethyl]piperazin-1-yl}indan-1-one] | > 6.00 |
| CC(C)CN1CCN(C(=O)CN2CCN(c3ccc4c(c3)COC4=O)CC2)CC1 [Compound 1161, 5-{4-[2-(4-isobutylpiperazin-1-yl)-2-oxoethyl]piperazin-1-yl}-2-benzofuran-1(3H)-one] | > 6.00 |
